Reference: paper PMC3610371, “Subamolide B Isolated from Medicinal Plant Cinnamomum subavenium Induces Cytotoxicity in Human Cutaneous Squamous Cell Carcinoma Cells through Mitochondrial and CHOP-Dependent Cell Death Pathways” (Evidence-based Complementary and Alternative Medicine : eCAM, 2013)
Several values for one entry are separate records, joined by “and”; a condition that tells them apart may be missing. Equal values may be shown once.

Key:
SCC12 cells [1] = test: SCC12 cell viability after 24 h treatment (Supplementary Figure 3); type: cell-based; details: Homo sapiens
Description: The effect of subamolide B on cell viability was mostly evaluated using CellTiter 96 AQueous Non-Radioactive Cell Proliferation Assay (MTS assay) kit (Promega, Madison, WI, USA) as previously described. Alternatively, propidium iodide (PI) exclusion assay was employed to determine cell viability. In brief, 4 × 10^5 SCC12 cells were seeded onto 6-well dishes and were subjected to 48 h treatment with subamolide B. Cells were then trypsinized, collected by centrifugation, and washed twice with PBS. Subsequently, cells were stained with 10 μg/ml of PI in PBS for 15 min in the dark, followed by flow cytometry analysis to determine the levels of PI incorporation.
Supplementary Figure Legends (Yang et al.) […]
Supplementary Figure 3. SCC12 cells were resistant to imiquimod-induced cytotoxicity.
SCC12 cells were treated with increasing doses of subamolide B (0~20 µM) (A) or
imiquimod (0~50 µg/ml) (B) for 24 h, and the viability of imiquimod-treated cells was
evaluated thereafter. It is noted that 20 µM (6.897 µg/ml) of subamolide B reduced the
viability of SCC12 cells to 50.47±5.89% compared to the drug-untreated control, whereas
65.00±4.32% of SCC12 cells were still viable after treatment with 50 µg/ml of imiquimod.

[2] = test system: BCC-1/KMC (basal cell carcinoma) cells; test: Cell viability determination via MTS assay, BCC-1/KMC; type: cell-based; details: Homo sapiens, BCC1, 48 h treatment, read-out: IC50 (reduce cell viability by 50%)
Description: (§1) The human cutaneous squamous cell carcinoma cell line SCC12 (kindly provided by Prof. Xiaoqi Wang, Northwestern University, USA) was grown in DMEM/F-12 (1 : 1) medium. The human malignant melanoma cell line A375 (ATCC number: CRL-1619), human epidermoid carcinoma cell line A-431 (ATCC number: CRL-1555), and HEK293T cells (ATCC number: CRL-11268) were grown in DMEM medium, whereas the human basal cell carcinoma cell line BCC-1/KMC [25] was cultured in RPMI1640 medium. […]
(§2) The effect of subamolide B on cell viability was mostly evaluated using CellTiter 96 AQueous Non-Radioactive Cell Proliferation Assay (MTS assay) kit (Promega, Madison, WI, USA) as previously described. […]
(§3) Figure 1 Cytotoxic effect of subamolide B on human skin cancer cell lines. […] 14 days later, the extent of subamolide B-mediated repression of SCC12 colony formation was evaluated by the numbers of colonies grown on culture dishes. […] (c) Quantitative analysis of subamolide B-mediated repression of SCC12 colony formation. The numbers of colonies shown in (b) were counted and the results were presented as the percentage of drug-treated groups compared to the drug-free controls. ***P < 0.001.

SCC12 cells [3] = test: Annexin-V/propidium iodide dual staining assay (flow cytometry); type: cell-based, human; details: subamolide B 20 μM, 24 h
Description: Annexin V/PI dual staining assay was employed to determine the involvement of apoptosis in subamolide B-induced cell death, using ApoTarget Annexin-V-FITC Apoptosis kit (Biosource, Camarillo, CA, USA) as described previously. If required, the pan-caspase inhibitor z-VAD-fmk (20 μM) was added to SCC12 cells 2 h before subamolide B treatment.
Figure 2 Apoptosis is partly responsible for subamolide B-induced SCC12 cell death. ((a), (b)) Subamolide B induces dose- and time-dependent proteolytic processing/activation of caspases-8, -9, -4, and -3. […] Subamolide B (20 μM) was used to treat SCC12 cells for 24 h without or with cotreatment of the pan-caspase inhibitor z-VAD-fmk (20 μM). […] The levels of apoptotic cells were indicated as the percentage of all cell populations as shown in (d). ***P < 0.001. […]

[4] = test system: WS1 normal skin fibroblasts; test: Cell viability determination via MTS assay, WS1; type: cell-based; details: Homo sapiens, Skin fibroblast; WS1, 48 h treatment; read-out: IC50 (reduce cell viability by 50%)
Description: as §1, §2, §3

[5] = test system: SCC12 (cutaneous squamous cell carcinoma) cells; test: Cell viability determination via MTS assay, SCC12; type: cell-based; details: Homo sapiens; SCC12, 48 h treatment; read-out: IC50 (reduce cell viability by 50%)
Description: as §1, §2, §3

A375 (melanoma) cells = test: Cell viability determination via MTS assay, A375; type: cell-based; details: Homo sapiens, A-375; A375, 48 h treatment; read-out: IC50 (reduce cell viability by 50%)
Description: as §1, §2, §3

[6] = test system: IMR-90 normal lung fibroblasts; test: Cell viability determination via MTS assay, IMR-90; type: cell-based; details: Homo sapiens; IMR-90, 48 h treatment; read-out: IC50 (reduce cell viability by 50%)
Description: as §1, §2, §3

[7] = test system: WI-38 normal lung fibroblasts; test: Cell viability determination via MTS assay, WI-38; type: cell-based; details: Homo sapiens; WI-38, 48 h treatment; read-out: IC50 (reduce cell viability by 50%)
Description: as §1, §2, §3

[8] = test system: MRC-5 normal lung fibroblasts; test: Cell viability determination via MTS assay, MRC-5; type: cell-based; details: Homo sapiens, MRC5; MRC-5, 48 h treatment; read-out: IC50 (reduce cell viability by 50%)
Description: as §1, §2, §3

[9] = test system: CCD-966SK normal skin fibroblasts; test: Cell viability determination via MTS assay, CCD-966SK; type: cell-based; details: Homo sapiens, Skin fibroblast, 48 h treatment, read-out: IC50 (reduce cell viability by 50%)
Description: as §1, §2, §3

SCC12 cells [10] = test: Colony formation assay; type: cell-based, human; details: 24 h treatment, then drug-free media 14 days
Description: The effect of subamolide B on the long-term survival of SCC12 cells was assessed using colony formation assay in accordance with the reported procedure. […] […] The colonies composed of 50 or more cells were counted under microscopy. At least three independent assays were performed to calculate the numbers of colonies for statistical analysis.
Figure 1 Cytotoxic effect of subamolide B on human skin cancer cell lines. (a) Dose-dependent cytotoxicity of subamolide B. Human skin cancer cell lines, including A375 (melanoma), A-431 (epidermoid carcinoma), BCC-1/KMC (basal cell carcinoma) and SCC12 (cutaneous squamous cell carcinoma), normal human skin fibroblast cell lines CCD-966SK and WS1, and normal human lung fibroblast cell lines IMR-90, MRC-5, and WI-38 were treated with graded doses of subamolide B (0~20 μM), followed by cell viability determination via MTS assay as described in Section 2. […] 14 days later, the extent of subamolide B-mediated repression of SCC12 colony formation was evaluated by the numbers of colonies grown on culture dishes. […] (c) Quantitative analysis of subamolide B-mediated repression of SCC12 colony formation. The numbers of colonies shown in (b) were counted and the results were presented as the percentage of drug-treated groups compared to the drug-free controls. ***P < 0.001.

[11] = test system: A-431 (epidermoid carcinoma) cells; test: Cell viability determination via MTS assay, A-431; type: cell-based; details: Homo sapiens; A-431, 48 h treatment; read-out: IC50 (reduce cell viability by 50%)
Description: as §1, §2, §3

[12] = test system: ATF6 transcriptional activity; test: ATF6 transcriptional activity luciferase reporter assay (p5xATF6-GL3); type: cell-based; details: Homo sapiens, SCC12 cells, 24 h, vs drug-untreated control
Source text: The ATF6 activity reporter plasmid p5xATF6-GL3 (Addgene plasmid 11976) carries five ATF6 response elements in tandem to drive the expression of firefly luciferase. The human CHOP promoter, which encompasses the region between −947 and +30 (+1 is the transcriptional start site) was PCR-amplified from the genomic DNA of peripheral blood mononuclear cells using the primer pair 5′-[…]-3′ (forward) and 5′-[…]-3′ (reverse). The 978-bp fragment was cloned into the luciferase reporter plasmid pGL4.18 vector (Promega, Madison, WI, USA) to generate the human CHOP promoter reporter plasmid (pCHOP-Luc). Luciferase activity assay was performed using Dual-Luciferase Reporter assay kit (Promega, Madison, WI, USA) as reported previously. Luciferase activity was normalized to Renilla luciferase activity, and final results were expressed as fold induction of the luciferase activity after subamolide B stimulation compared to that of drug-untreated control.
Figure 5 Subamolide B is an ER stress inducer. (a) Subamolide B upregulates signature ER stress markers GRP78 and CHOP. […] The level of CHOP mRNA in SCC12 cells after 24 h treatment with subamolide B (0~20 μM) was assessed by semiquantitative RT-PCR analysis. β-actin was used as the loading control. […] ATF6 transcriptional activity was then evaluated by luciferase activity assay. […]

IC50 [2] [µM]	IC50 [5] [µM]	IC50 (A375 (melanoma) cells) [µM]	IC50 [11] [µM]	Structure (SMILES)	viability at 50 µg/mL (SCC12 cells [1]; SCC12, imiquimod 50 μg/ml, 24 h, read-out: SCC12 cell viability, % of the drug-untreated control) [%]	level of apoptotic cells (percentage of all cell populations) (SCC12 cells [3]; cotreated with z-VAD-fmk 20 μM) [%]	level of apoptotic cells (percentage of all cell populations) (SCC12 cells [3]; without z-VAD-fmk) [%]	IC50 [4] [µM]	viability at 20 µM (SCC12 cells [1]; SCC12, subamolide B 20 μM (6.897 μg/ml), 24 h, read-out: SCC12 cell viability, % of the drug-untreated control) [%]	IC50 (SCC12 cells [1]; SCC12, 24 h treatment, read-out: IC50 (SCC12 cytotoxicity))	IC50 [6] [µM]	IC50 [7] [µM]	IC50 [8] [µM]	IC50 [9] [µM]	SCC12 colony formation, % of the drug-untreated control (SCC12 cells [10]; 10 μM) [%]	SCC12 colony formation, % of the drug-untreated control (SCC12 cells [10]; 20 μM) [%]	fold induction at 10 µM [12]
–	–	–	–	CC(C)Cn1cnc2c(N)nc3ccccc3c21 [imiquimod, reference compound]	65 ± 4.32	–	–	–	–	–	–	–	–	–	–	–	–
> 20	9.12	17.6	13.3	CCCCCCCCCCCCC/C=C1/C(=O)O[C@@](C)(OC)[C@@H]1O [subamolide B, (3E,4R,5R)-3-tetradecylidene-4-hydroxy-5-methoxy-5-methyl-butanolide]	–	18.6 ± 0.42	32.55 ± 3.65	> 20	50.5 ± 5.89	6.9 µg/mL and 20.3 µM	> 20	> 20	> 20	> 20	58.93 ± 2.40	28.20 ± 10.87	16.1 ± 2.06
